Laboratory results: patent US8367658B2, “Pyrazin-2-yl-pyridin-2-yl-amine and pyrazin-2-yl-pyrimidin-4-yl-amine compounds and their use” (Cancer Research Technology Limited, priority 2007, dated 2013)
Values joined by “and” are separate entries in the source; they are usually repeats but may differ in a detail not shown here. Identical values can stand only once.

Biological target: T1, CHK1 (Homo sapiens, UniProt O14757)
T1 sequence (O14757 1-476): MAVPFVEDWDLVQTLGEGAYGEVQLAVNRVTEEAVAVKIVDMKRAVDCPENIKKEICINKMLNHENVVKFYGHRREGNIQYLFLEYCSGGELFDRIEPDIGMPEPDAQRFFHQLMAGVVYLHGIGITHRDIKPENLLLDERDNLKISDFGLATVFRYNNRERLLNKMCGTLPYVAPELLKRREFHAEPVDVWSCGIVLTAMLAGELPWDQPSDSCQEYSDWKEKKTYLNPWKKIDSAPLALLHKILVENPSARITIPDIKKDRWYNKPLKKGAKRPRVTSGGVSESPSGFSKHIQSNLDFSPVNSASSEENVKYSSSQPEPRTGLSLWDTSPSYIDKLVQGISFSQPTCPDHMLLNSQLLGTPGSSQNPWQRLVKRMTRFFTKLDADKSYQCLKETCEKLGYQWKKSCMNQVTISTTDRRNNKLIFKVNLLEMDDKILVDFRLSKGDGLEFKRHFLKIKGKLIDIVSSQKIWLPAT
Test: CHK1 kinase function inhibition assay (DELFIA, phosphorylation of a CDC25C peptide)
Type: biochemical
Conditions: CHK1 1 nM, ATP 30 μM, 30 minutes at room temperature
Procedure, shortened: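 Phosphorylation of a CDC25C peptide detected by DELFIA with a phospho-specific antibody. Kinase reaction ran 30 min at room temperature, was stopped with EDTA buffer, then captured on neutravidin-coated plates for 1 h before time-resolved fluorescence read-out with enhancement solution.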

SMILES	IC50
N#Cc1cnc(Nc2cc(NCCCCN)ncn2)cn1 [Compound Z-016, 5-(6-(4-Aminobutylamino)pyrimidin-4-ylamino)pyrazine-2-carbonitrile]	≤ 1000 nM and 600 nM and 100 to 1000 nM
N#Cc1cnc(Nc2cc(N3CCNCC3)ncn2)cn1 [Compound Z-018, 5-(6-(piperazin-1-yl)pyrimidin-4-ylamino)pyrazine-2-carbonitrile]	1000 to 10000 nM
N#Cc1cnc(Nc2cc(NCC3CCCNC3)ncn2)cn1 (stereo not drawn) [Compound Z-022, 5-(6-(Piperidin-3-ylmethylamino)pyrimidin-4-ylamino)pyrazine-2-carbonitrile]	≤ 1000 nM and 100 to 1000 nM
N#Cc1cnc(Nc2cc(N[C@H]3CCNC3)ncn2)cn1 [Compound Z-024, (S)-5-(6-(Pyrrolidin-3-ylamino)pyrimidin-4-ylamino)pyrazine-2-carbonitrile]	1000 to 10000 nM
N#Cc1cnc(Nc2cc(NCCC[C@@H](N)C(=O)Nc3ccccc3)ncn2)cn1 [Compound Z-025, (R)-2-Amino-5-(6-(5-cyanopyrazin-2-ylamino)pyrimidin-4-ylamino)-N-phenylpentanamide]	≤ 1000 nM and 100 to 1000 nM
N#Cc1cnc(Nc2cc(NCC[C@H](N)C(=O)Nc3ccccc3)ncn2)cn1 [Compound Z-026, (S)-2-Amino-4-(6-(5-cyanopyrazin-2-ylamino)pyrimidin-4-ylamino)-N-phenylbutanamide]	≤ 1000 nM and 100 to 1000 nM
CN1C2CCC1CC(Nc1cc(Nc3cnc(C#N)cn3)ncn1)C2 [Compound Z-027, 5-(6-((1R,3s,5S)-8-Methyl-8-azabicyclo[3.2.1]octan-3-ylamino)pyrimidin-4-ylamino)pyrazine-2-carbonitrile]	≤ 100 nM

Next, values leading:

IC50	SMILES
1000 to 10000 nM	CC1(CNc2cc(Nc3cnc(C#N)cn3)ncn2)CCNCC1 [Compound Z-028, 5-(6-((4-Methylpiperidin-4-yl)methylamino)pyrimidin-4-ylamino)pyrazine-2-carbonitrile]
≤ 1000 nM and 100 to 1000 nM	N#Cc1cnc(Nc2cc(NCCC3CCNCC3)ncn2)cn1 [Compound Z-029, 5-(6-(2-(Piperidin-4-yl)ethylamino)pyrimidin-4-ylamino)pyrazine-2-carbonitrile]
1000 to 10000 nM	CN(CC1CCNCC1)c1cc(Nc2cnc(C#N)cn2)ncn1 [Compound Z-031, 5-(6-(Methyl(piperidin-4-ylmethyl)amino)pyrimidin-4-ylamino)pyrazine-2-carbonitrile]
1000 to 10000 nM	CC(Nc1cc(Nc2cnc(C#N)cn2)ncn1)C1CCNCC1 (stereo not drawn) [Compound Z-032, 5-(6-(1-(Piperidin-4-yl)ethylamino)pyrimidin-4-ylamino)pyrazine-2-carbonitrile]
1000 to 10000 nM	N#Cc1cnc(Nc2cc(N[C@H]3CC[C@H](O)CC3)ncn2)cn1 [Compound Z-038, 5-(6-((1r,4r)-4-Hydroxycyclohexylamino)pyrimidin-4-ylamino)pyrazine-2-carbonitrile]
≤ 1000 nM and 100 to 1000 nM	CC(C)(CO)Nc1cc(Nc2cnc(C#N)cn2)ncn1 [Compound Z-039, 5-(6-(1-Hydroxy-2-methylpropan-2-ylamino)pyrimidin-4-ylamino)pyrazine-2-carbonitrile]
1000 to 10000 nM	N#Cc1cnc(Nc2cc(NCCCCO)ncn2)cn1 [Compound Z-041, 5-(6-(4-Hydroxybutylamino)pyrimidin-4-ylamino)pyrazine-2-carbonitrile]
1000 to 10000 nM	COc1nc(Nc2cc(NCC3CCNCC3)ncn2)cnc1C#N [Compound Z-046, 3-Methoxy-5-(6-(piperidin-4-ylmethylamino)pyrimidin-4-ylamino)-pyrazine-2-carbonitrile]
